Measurements published in patent US20130005660A1, “Plasma Activation of Biological Materials for Surface Modification” (ORTHOBOND, INC., priority 2011, published 2013).

Assay: Stability of gentamicin in 0.25M HCl under autoclave conditions
Type: physicochemical

Substance: gentamicin
- stability of gentamicin: No significant loss of gentamicin detection
